Results on one molecule are retold here after patent publication US20210361673A1, “COMPOSITIONS AND METHODS OF TREATING VIRAL INFECTIONS” (Lipocine Inc., priority 2020, published 2021).

Marks after values point to notes of the source that are not given here.

The data set is described as follows: Mean marker change from baseline after treatment (TU, TT 14-day, TD single dose, TU depot injection, topical T after 7 days). The class given is in vivo. Conditions: for Cmax to mean Cave ratio: range calculated from the average low and average high for the 5 arms tested. The source says:
The mean marker change from baseline in the foregoing tables can be measured at various times including: hours after treatment commences, 7 to 14 days after treatment commences, and during treatment.
A-E are all the 14-day timepoint
TU Depot Injection—after Single Dose

For `CCCCCCCCCCCCC(=O)O[C@H]1CC[C@H]2[C@@H]3CCC4=CC(=O)CC[C@]4(C)[C@H]3CC[C@]12C` [TT, testosterone tridecanoate], the “Mean marker change from baseline in serum (e.g. IL-2, IL-6, TNF-Alpha, CRP, SHBG, MCP-1, AST, ALT, ALP)” value was −5% to −35% (total daily TT dose 300 mg) and −5% to −35% (total daily TT dose 2700 mg). The “Cmax to mean Cave ratio” value by setting is: (total daily TT dose 300 mg) 1.72-3.08*; (total daily TT dose 2700 mg) 1.72-3.09*.
